Values after ≈ are worked out from the molar mass of the structure shown.
Columns and labels:
Assay in all cases: MIC, solid dilution method
[1] = test system: Enterobacter aerogenes 8193; type: cell-based; conditions: Klebsiella aerogenes; E. ae 8193, CRE clinical isolate; MHA agar, 37° C., 16-20 hours; read-out: MIC
Procedure: CRE Enterobacter aerogenes 8193, a total of 1 strain;
(§1) The above-mentioned glycerol-preserved strains were taken out from the −80° C. refrigerator, streaked and inoculated on MHA plates, labeled, and cultured overnight in a 37° C. incubator.
(§2) The inoculum was prepared directly from bacterial suspension, and several recovered colonies were picked and directly prepared into a bacterial suspension with a turbidity of No. 0.5 McFarland units in normal saline, and a 10-fold dilution was made during inoculation.
(§3) 6 bottles of MHA culture medium 500 mL/bottle were prepared, and the pH was adjusted to 7.2-7.4, sterilized at 121° C. for 15 min, and the medium was placed in a 55° C. water bath to keep warm.
(§4) Sterile blank petri dishes were taken, and marked with each FL drug/concentration according to 2-fold dilution, and 10 concentrations of each drug starting from 8 μg/mL were tested.
(§5) […]; 20 mL was aspirated and added to a petri dish consistent with the mark, and then 20 mL of MHA culture medium was added to the rest of the drug-containing culture medium, mixed evenly, that is, the 2-fold diluted drug-containing culture medium; 20 mL was aspirated and added to the petri dish consistent with the mark, and then diluted to the 10th concentration and the […] respectively by repeating the above-mentioned steps, and then poured into the petri dish.
(§6) 4 bacterial control petri dishes without drug were prepared at the same time as a control.
(§7) The positioning needle and the inoculation needle were installed according to the order of placement of the colony on the inoculation plate. After inoculation, a bacterial solution circle was formed on the petri dish. After the bacterial solution was absorbed by the agar, the petri dish was placed in an incubator at 37° C. for overnight incubation (16-20 hours), and then taken out.
(§8) The minimum inhibitory concentrations of the compounds against the CRE and CSE strains were determined by the solid dilution method, and the results are shown in Tables 3 and 4.

E. ae 14186 = type: cell-based, Enterobacter aerogenes; conditions: Klebsiella aerogenes, 14186
Procedure: as §1, §2, §3, §4, §5, §6, §7, §8

E. coli 11256 = type: cell-based; conditions: Escherichia coli; E. coli 11256; MHA agar, 37° C., 16-20 hours; read-out: MIC
Procedure: as §1, §2, §3, §4, §5, §6, §7, §8

Escherichia coli 11119 = type: cell-based; conditions: 11119
Procedure: as §1, §2, §3, §4, §5, §6, §7, §8

Escherichia coli 13897 = type: cell-based; conditions: E. coli 13897, CRE clinical isolate, MHA agar, 37° C., 16-20 hours, read-out: MIC
Procedure: as §1, §2, §3, §4, §5, §6, §7, §8

Escherichia coli 14828 = type: cell-based; conditions: 14828
Procedure: as §1, §2, §3, §4, §5, §6, §7, §8

Klebsiella oxytoca 12391 = type: cell-based; conditions: K. ox 12391, CRE clinical isolate, MHA agar, 37° C., 16-20 hours, read-out: MIC
Procedure: as §1, §2, §3, §4, §5, §6, §7, §8

Klebsiella oxytoca 14151 = type: cell-based; conditions: 14151
Procedure: as §1, §2, §3, §4, §5, §6, §7, §8

Klebsiella oxytoca 14153 = type: cell-based; conditions: 14153
Procedure: as §1, §2, §3, §4, §5, §6, §7, §8

Klebsiella oxytoca 6777 = type: cell-based; conditions: 6777
Procedure: as §1, §2, §3, §4, §5, §6, §7, §8

[2] = test system: Escherichia coli ATCC25922; type: cell-based; conditions: E. coli ATCC25922, standard strain, MHA agar, 37° C., 16-20 hours, read-out: MIC
Procedure: (§9) (1) Standard strains: Escherichia coli BAA-2452, Escherichia coli ATCC25922, Klebsiella pneumoniae BAA-1705; all purchased from ATCC.
as §1, §2, §3, §4, §5, §6, §7, §8

[3] = test system: Escherichia coli BAA-2452; type: cell-based; conditions: BAA2452, E. coli BAA-2452, standard strain, MHA agar, 37° C., 16-20 hours, read-out: MIC
Procedure: as §9, §1, §2, §3, §4, §5, §6, §7, §8

[4] = test system: Klebsiella pneumoniae BAA-1705; type: cell-based; conditions: BAA1705
Procedure: as §9, §1, §2, §3, §4, §5, §6, §7, §8

[5] = test system: Klebsiella pneumoniae 11544; type: cell-based; conditions: 11544
Procedure: (§10) (2) Clinical isolated strains: CRE Klebsiella pneumoniae 5846, 11544, 12559, 13249 and CSE Klebsiella pneumoniae 8733, a total of 5 strains;
as §1, §2, §3, §4, §5, §6, §7, §8

[6] = test system: Klebsiella pneumoniae 12559; type: cell-based; conditions: K.p 12559, CRE clinical isolate, MHA agar, 37° C., 16-20 hours, read-out: MIC
Procedure: as §10, §1, §2, §3, §4, §5, §6, §7, §8

[7] = test system: Klebsiella pneumoniae 13249; type: cell-based; conditions: 13249
Procedure: as §10, §1, §2, §3, §4, §5, §6, §7, §8

[8] = test system: Klebsiella pneumoniae 5846; type: cell-based; conditions: 5846
Procedure: as §10, §1, §2, §3, §4, §5, §6, §7, §8

[9] = test system: Klebsiella pneumoniae 8733; type: cell-based; conditions: K.p 8733, CSE clinical isolate, MHA agar, 37° C., 16-20 hours, read-out: MIC
Procedure: as §10, §1, §2, §3, §4, §5, §6, §7, §8

[10] = test system: Citrobacter freundii 7646; type: cell-based; conditions: C.f 7646, CSE clinical isolate, MHA agar, 37° C., 16-20 hours, read-out: MIC
Procedure: (§11) CRE Citrobacter freundii 9434, 9484 and CSE Citrobacter freundii 7646, a total of 3 strains;
as §1, §2, §3, §4, §5, §6, §7, §8

[11] = test system: Citrobacter freundii 9434; type: cell-based; conditions: 9434
Procedure: as §11, §1, §2, §3, §4, §5, §6, §7, §8

[12] = test system: Citrobacter freundii 9484; type: cell-based; conditions: C.f 9484, CRE clinical isolate, MHA agar, 37° C., 16-20 hours, read-out: MIC
Procedure: as §11, §1, §2, §3, §4, §5, §6, §7, §8

[13] = test system: Acinetobacter baumannii 6383; type: cell-based; conditions: 6383
Procedure: (§12) CRE Acinetobacter baumannii 8476, 6383, a total of 2 strains; CRE Serratia marcescens 14541, a total of 1 strain; all collected in the Department of Infectious Diseases, West China Hospital, Chengdu, Sichuan Province, and kept in our laboratory.
as §1, §2, §3, §4, §5, §6, §7, §8

[14] = test system: Acinetobacter baumannii 8476; type: cell-based; conditions: A.B 8476, CRE clinical isolate, MHA agar, 37° C., 16-20 hours, read-out: MIC
Procedure: as §12, §1, §2, §3, §4, §5, §6, §7, §8

[15] = test system: Serratia marcescens 14541; type: cell-based; conditions: 14541
Procedure: as §12, §1, §2, §3, §4, §5, §6, §7, §8

## C[C@H]1[C@H](NC(=O)/C(=N\OC(C)(C)C(=O)O)c2csc(N)n2)C(=O)N1S(=O)(=O)O [Aztreonam, aztreonam, reference compound]
[1]
  MIC: 32 mg/L (≈ 73.5 µM)
E. ae 14186
  MIC: > 128 mg/L
E. coli 11256
  MIC: < 0.25 mg/L
Escherichia coli 11119
  MIC: > 128 mg/L
Escherichia coli 13897
  MIC: 64 mg/L (≈ 147 µM)
Escherichia coli 14828
  MIC: > 128 mg/L
Klebsiella oxytoca 12391
  MIC: 32 mg/L (≈ 73.5 µM)
Klebsiella oxytoca 14151
  MIC: > 128 mg/L
Klebsiella oxytoca 14153
  MIC: > 128 mg/L
Klebsiella oxytoca 6777
  MIC: 128 mg/L (≈ 294 µM)
[2]
  MIC: < 0.25 mg/L
[3]
  MIC: 8 mg/L (≈ 18.4 µM)
[4]
  MIC: > 128 mg/L
[5]
  MIC: > 128 mg/L
[6]
  MIC: 4 mg/L (≈ 9.19 µM)
[7]
  MIC: > 128 mg/L
[8]
  MIC: 128 mg/L (≈ 294 µM)
[9]
  MIC: 8 mg/L (≈ 18.4 µM)
[10]
  MIC: 16 mg/L (≈ 36.7 µM)
[11]
  MIC: > 128 mg/L
[12]
  MIC: 1 mg/L (≈ 2.3 µM)
[13]
  MIC: 128 mg/L (≈ 294 µM)
[14]
  MIC: 64 mg/L (≈ 147 µM)
[15]
  MIC: > 128 mg/L

Reference: patent US12491180B2, “Application of compound in treating pneumonia” (SHENZHEN OPTIMUM BIOLOGICAL TECHNOLOGY CO., LTD., priority 2019, dated 2025)
